Laboratory results from ChEMBL document CHEMBL1145231, “2-Alkoxydihydrocinnamates as PPAR agonists. Activity modulation by the incorporation of phenoxy substituents” (Bioorg Med Chem Lett, 2005).

Legend:
[1] = molecular target: T1, Peroxisome proliferator-activated receptor delta (Homo sapiens, UniProt Q03181)
T1 sequence (Q03181 whole entry): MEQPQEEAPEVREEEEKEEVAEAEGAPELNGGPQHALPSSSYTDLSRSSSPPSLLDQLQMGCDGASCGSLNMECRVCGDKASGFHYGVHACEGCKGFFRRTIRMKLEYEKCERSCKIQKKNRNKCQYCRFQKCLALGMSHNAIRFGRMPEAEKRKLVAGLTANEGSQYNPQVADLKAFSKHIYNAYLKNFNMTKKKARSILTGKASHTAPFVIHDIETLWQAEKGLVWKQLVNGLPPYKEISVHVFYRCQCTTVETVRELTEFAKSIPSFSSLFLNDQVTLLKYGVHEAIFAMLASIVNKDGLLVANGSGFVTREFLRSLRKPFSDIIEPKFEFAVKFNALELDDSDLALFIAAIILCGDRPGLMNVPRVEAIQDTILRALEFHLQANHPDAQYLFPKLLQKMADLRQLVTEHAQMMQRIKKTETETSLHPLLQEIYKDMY

[2] = molecular target: T2, Peroxisome proliferator-activated receptor alpha (Homo sapiens, UniProt Q07869)
T2 sequence (Q07869 whole entry): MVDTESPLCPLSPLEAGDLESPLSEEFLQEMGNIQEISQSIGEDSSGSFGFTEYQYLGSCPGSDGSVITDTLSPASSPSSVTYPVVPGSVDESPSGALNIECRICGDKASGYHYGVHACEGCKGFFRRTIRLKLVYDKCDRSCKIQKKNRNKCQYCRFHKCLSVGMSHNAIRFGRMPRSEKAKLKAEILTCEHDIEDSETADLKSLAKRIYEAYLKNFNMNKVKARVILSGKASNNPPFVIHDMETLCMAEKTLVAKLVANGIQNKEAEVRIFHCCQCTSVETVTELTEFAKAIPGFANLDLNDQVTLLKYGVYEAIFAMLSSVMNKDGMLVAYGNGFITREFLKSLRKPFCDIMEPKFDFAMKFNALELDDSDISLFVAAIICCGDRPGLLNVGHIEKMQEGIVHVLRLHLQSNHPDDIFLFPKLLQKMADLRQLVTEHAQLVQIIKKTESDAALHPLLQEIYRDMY

[3] = organism: Rattus norvegicus; test: animal or person; type: functional
[4] = molecular target: T2, Peroxisome proliferator-activated receptor alpha; remark: listed apart in the source

Row | SMILES | IC50 [1] | EC50 [2] | ED50 [3] | IC50 [4]
1 | CO[C@@H](Cc1ccc(OCCCOc2ccc(C(=O)c3ccccc3)cc2)cc1)C(=O)O | 2.32 µM | 2.87 µM | 0.18 mg/kg | 0.47 µM
2 | CC(C)(Oc1ccc(C(=O)c2ccc(Cl)cc2)cc1)C(=O)O [FENOFIBRIC ACID] | – | > 10 µM | – | > 10 µM
3 | CO[C@@H](Cc1ccc(OCCCOc2ccc(-c3ccccc3)cc2)cc1)C(=O)O | 1.39 µM | 1.1 µM | 1.5 mg/kg | 0.568 µM
4 | CO[C@@H](Cc1ccc(OCCCOc2ccc(Oc3ccccc3)cc2)cc1)C(=O)O [NAVEGLITAZAR] | 1.92 µM | 2.82 µM | 0.1 mg/kg | 2.71 µM
5 | CO[C@@H](Cc1ccc(C#CCCOc2ccc(Oc3ccccc3)cc2)cc1)C(=O)O | 3.94 µM | 1.88 µM | 0.08 mg/kg | 1.15 µM
6 | CO[C@@H](Cc1ccc(OCCCOc2ccc(C(=O)c3ccccc3)cc2)c(Cl)c1)C(=O)O | 1.51 µM | 2.71 µM | 0.29 mg/kg | 0.309 µM
7 | CO[C@@H](Cc1ccc(C#CCCCOc2ccc(Oc3ccccc3)cc2)cc1)C(=O)O | 4.12 µM | 2.62 µM | 0.07 mg/kg | 0.77 µM
8 | COc1cc(C[C@H](OC)C(=O)O)ccc1OCCCOc1ccc(Oc2ccccc2)cc1 | 7.5 µM | 2.15 µM | 0.12 mg/kg | 1.35 µM
9 | CCO[C@@H](Cc1ccc(OCCCOc2ccc(Oc3ccccc3)cc2)cc1)C(=O)O | 1.57 µM | 2.75 µM | 0.015 mg/kg | 1.69 µM
